From patent publication US20060135443A1, “Use of Na*/K*-ATPase inhibitors and antagonists thereof” (Bionaut Pharmaceuticals, Inc., priority 2004, published 2006)
Entries after “also recorded” stand apart in the source; their conditions may differ.

Assays:
[1] = test system: A549 (NSCLC) Sentinel Line; assay: Sentinel Line reporter assay (FACS, FDG); type: cell-based, human; settings: 40 hrs; for cell death / reporter activity: agent alone; for cell death: Sentinel Lines; for reporter activity: mitoxantrone 8 nM, paclitaxel 1.5 nM, carboplatin 15 μM, gemcitabine 2.5 nM, Iressa 4 μM
Description: The expression level of beta-galactosidase gene in sentinel lines was determined by using a fluorescent substrate fluorescein di-B-D-Galactopyranside (FDG, Marker Gene Tech, #M0250) introduced into cells by hypotonic shock. Cleavage by beta-galactosidase results in the production of free fluorescein, which is unable to cross the plasma membrane and is trapped inside the beta-gal positive cells. Briefly, the cells to be analyzed are trypsinized, and resuspended in PBS containing 2 mM FDG (diluted from a 10 mM stock prepared in 8:1:1 mixture of water: ethanol: DMSO). The cells were then shocked for 4 minutes at 37° C. and transferred to FACS tubes containing cold 1×PBS on ice. Samples were kept on ice for 30 minutes and analyzed by FACS in FL1 channel.
Sentinel Line cells with beta-galactosidase reporter gene were plated at 1×10^5 cells/10 cm dish. […] After 40 hrs, the cells were trypsinized and the expression level of reporter gene was determined by FDG loading.
In experiments of FIG. 10, the A549 sentinel line was incubated with Gemcitabine in the presence or absence of indicated Bionaut compounds (including the cardiac glycoside compound BNC4) for 40 hrs. The reporter activity was measured by FACS analysis.

[2] = test system: cancer cell lines; assay: proliferation of cancer cell lines; type: cell-based; settings: for decrease of concentration effective for inhibiting proliferation of cancer cells: in combination with a steroid signal modulator (Casodex)
Source text: The concentration at which a cardiac glycoside is effective as part of an antiproliferative treatment may be further decreased by combination with an additional agent that negatively regulates HIF-responsive genes, such as a redox effector or a steroid signal modulator. […] Therefore, in certain embodiments, the invention provides combination therapies of cardiac glycosides with, for example, steroid signal modulators and/or redox effectors. Additionally, cardiac glycosides may be combined with radiation therapy, taking advantage of the radiosensitizing effect that many cardiac glycosides have.

[3] = test system: A549(ROS) tumor cell line; assay: ROS levels by FACS; type: cell-based, human; settings: normoxia, 4 hrs
Description: (§1) Thirty minutes prior to the termination of incubation period, 2,7-dichlorofluorescin diacetate (CFH-DA, […]) was added to the cells and incubated for the last 30 min at 37° C. The ROS levels were determined by FACS analysis.

[4] = test system: VEGF; assay: VEGF secretion in tumor cells; type: cell-based
[5] = test system: Panc-1 human pancreatic tumors; assay: Panc-1 human pancreatic tumor xenograft; type: in vivo, nude mice; settings: Gemcitabine 40 mg/kg q3d×4; for Final Tumor weight Day 25 (Mean): BNC1 20 mg/ml s.c. osmotic pump 0.5 μl/hr, n=8; for % TGI: Day 25, BNC1 20 mg/ml s.c. C.I.
Description: (§2) Female nude mice (nu/nu) between 5 and 6 weeks of age weighing approximately 20 g were implanted subcutaneously (s.c.) by trocar with fragments of human tumors harvested from s.c. grown tumors in nude mice hosts. When the tumors were approximately 60-75 mg in size (about 10-15 days following inoculation), the animals were pair-matched into treatment and control groups. Each group contains 8-10 mice, each of which was ear tagged and followed throughout the experiment.
(§3) The administration of drugs or controls began the day the animals were pair-matched (Day 1). Pumps (Alzet® Model 2002) with a flow rate of 0.5 μl/hr were implanted s.c. between the shoulder blades of each mice. Mice were weighed and tumor measurements were obtained using calipers twice weekly, starting Day 1. These tumor measurements were converted to mg tumor weight by standard formula, (W^2×L)/2. The experiment is terminated when the control group tumor size reached an average of about 1 gram. Upon termination, the mice were weighed, sacrificed and their tumors excised. The tumors were weighed and the mean tumor weight per group was calculated.
The control animals received pumps containing vehicle (50% DMSO in DMEM). The mice treated with standard chemotherapy agent received intra-peritoneal injections of Gemcitabine at 40 mg/kg every 3 days for 4 treatments (q3d×4). Each data point represent average tumor weight (n=8) and error bars indicate SEM.
Gem was also included in the experiment as a comparison.

[6] = test system: Caki-1 human renal cancer xenograft; assay: Caki-1 human renal cancer xenograft; type: in vivo, nude mice; settings: for Final Tumor weight Day 22 (Mean): BNC1 20 mg/ml s.c. pump 0.5 μl/hr, n=10; for Final Tumor weight Day 22 (Mean) / % TGI: Cytoxan 100 or 300 ip; for % TGI: Day 22, BNC1 20 mg/ml s.c. C.I.
Description: as §2, §3
Cytoxan (q1d×1) was injected at 100 mg/kg (Cyt 100) or 300 mg/kg (Cyt 300).

[7] = test system: A549 human non-small-cell-lung carcinoma; assay: A549 human non-small-cell-lung carcinoma xenograft; type: in vivo, nude mice; settings: for animals with tumor at the end of the experiment: 8 animals per group; for % Weight Change at Day 38 / Final Tumor weight Day 38 (Mean) / % TGI: Carboplatin 100 mg/kg ip qd×1; for % Weight Change at Day 38 / Final Tumor weight Day 38 (Mean): n=8; for % TGI: Day 38, BNC1 20 mg/ml s.c. C.I.
Description: as §2, §3
Carboplatin (q1d×1) was injected at 100 mg/kg (Carb).

[8] = target: Na^+/K^+-ATPase α peptide isoforms; settings: four α peptide isoforms, almost all mammalian species; cited from earlier work
[9] = cited from earlier work; for max. plasma concentration: in vivo
[10] = target: purified sodium, potassium ATPase enzyme (Na-K ATPase); settings: read-out: IC50, displaced ouabain from its binding sites; Ferrari et al. 1998; cited from earlier work
[11] = test system: other receptors involved in blood pressure regulation or hormonal control; settings: Ferrari et al. 1998; cited from earlier work
[12] = test system: HIF-1α; assay: HIF-1α Western blot in tumor cells; type: cell-based, human; settings: Hep3B, Caki-1 or Panc-1 cells under hypoxia
Description: For HIF1-alpha Western blots, Hep3B cells were seeded in growth medium at a density of 7×10^6 cells per 100 mm dish. […] Samples were fractionated on 3-8% Tris-Acetate gel (Invitrogen NUPAGE system) by sodium dodecyl sulfate (SDS)-polyacrylamide gel electropherosis and transferred onto nitrocellulose membrane. […] Anti-Beta-actin monoclonal antibody (Abcam, ab6276-100) was used at a 1:5000 dilution with a 30-minute incubation at room temperature.
The cells were lysed and proteins were resolved by SDS-PAGE and transferred to a nylon membrane.
as §1

[13] = test system: HIF-1α; assay: HIF-1α induced under normoxia by PHD inhibitor L-mimosone, Western blot; type: cell-based, human; settings: Hep3B cells, 200 μM L-mimosone, 18 h
Description: Abundance of HIF1α and β-actin was determined by western blotting.

SMILES: CC(=O)O[C@H]1C(=O)[C@@]2(C)[C@H]([C@H](OC(=O)c3ccccc3)[C@]3(O)C[C@H](OC(=O)[C@H](O)[C@@H](NC(=O)c4ccccc4)c4ccccc4)C(C)=C1C3(C)C)[C@]1(OC(C)=O)CO[C@@H]1C[C@@H]2O [paclitaxel]
- cell death [1]: increases
- reporter activity [1]: increases

SMILES: C[C@@H]1O[C@@H](O[C@H]2C[C@@H](O)[C@]3(CO)[C@H]4[C@H](O)C[C@]5(C)[C@@H](C6=CC(=O)OC6)CC[C@]5(O)[C@@H]4CC[C@]3(O)C2)[C@H](O)[C@H](O)[C@H]1O [BNC1, ouabain]
- decrease of concentration effective for inhibiting proliferation of cancer cells [2]: 5 fold
- ROS production [3]: induces ROS production
- secretion of the angiogenesis factor VEGF [4]: inhibits
- Final Tumor weight Day 25 (Mean) [5]: 200 mg
- tumor growth (in words) ([5]; BNC1 20 mg/ml s.c. pump): significantly reduce tumor growth
- % TGI [5]: 82.15%
- Final Tumor weight Day 22 (Mean) [6]: 314.9 mg
- anti-tumor activity (in words) ([6]; BNC1 20 mg/ml s.c. pump, Cytoxan 100 or 300 mg/kg): potent anti-tumor agent when used alone
- % TGI [6]: 81.45%
- animals with tumor at the end of the experiment [7]: none of the experimental animals showed any signs of tumor
- anti-tumor activity (in words) ([7]; BNC1 20 mg/ml s.c. pump, Carboplatin 100 mg/kg): potent anti-tumor activity
- % Weight Change at Day 38 ([7]; BNC1 20 mg/ml s.c. pump): 21%
- Final Tumor weight Day 38 (Mean) ([7]; BNC1 20 mg/ml s.c. pump): 0.0 mg
- % TGI [7]: 100.00%
- Kd [8]: ≤ 1 nM
- max. plasma concentration [9]: about 0.03 μg/mL

SMILES: O=P1(N(CCCl)CCCl)NCCCO1 (centres unmarked) [Cytoxan]
- Final Tumor weight Day 22 (Mean) [6]: 769 mg
- Final Tumor weight Day 22 (Mean) ([6]; listed as Cytoxan300): 93.7 mg
- % TGI [6]: 54.70%
- % TGI ([6]; listed as Cytoxan300): 94.48%

SMILES: Nc1ccn([C@@H]2O[C@H](CO)[C@@H](O)C2(F)F)c(=O)n1 [Gemcitabine]
- reporter activity [1]: elevated reporter activity
- Final Tumor weight Day 25 (Mean) [5]: 701.3 mg
- % TGI [5]: 37.40%

SMILES: O=C1c2c(O)ccc(O)c2C(=O)c2c(NCCNCCO)ccc(NCCNCCO)c21 [mitoxanthrone, mitoxantrone]
- cell death [1]: increases
- reporter activity [1]: increases

SMILES: CC12CCC(O)CC1CCC1C2CCC2(C)C(O)(c3ccoc3)CCC12O (stereo not drawn) [PST 2238, 17beta-(3-furyl)-5beta-androstane-3beta, 14beta, 17alpha-triol]
- IC50 [10]: 1700 nM
- interaction with other receptors [11]: without interacting

SMILES: N.N.O=C([O-])C1(C(=O)[O-])CCC1.[Pt+2] [Carboplatin]
- cell death [1]: increases
- reporter activity [1]: increases
- animals with tumor at the end of the experiment [7]: all 8
- % Weight Change at Day 38 ([7]; BNC1 20 mg/ml s.c. pump): 16%
- Final Tumor weight Day 38 (Mean) ([7]; BNC1 20 mg/ml s.c. pump): 509.75 mg
- % TGI [7]: 39.50%

SMILES: C[C@@H]1O[C@@H](O[C@@H]2C=C3CC[C@@H]4[C@H](CC[C@]5(C)[C@@H](c6ccc(=O)oc6)CC[C@]45O)[C@@]3(C)CC2)[C@H](O)[C@H](O)[C@H]1O [BNC4, proscillaridin]
- decrease of concentration effective for inhibiting proliferation of cancer cells [2]: 5 fold
- IC50 ([2]; test system not named at the place, read-out: predicted IC50): 2 to 8 ng/mL
- Gemcitabine-induced stress response (reporter activity) ([1]; incubated with Gemcitabine plus compound): significantly shift the reporter activity to the left
- potency in inhibiting HIF-1α expression relative to BNC1 [12]: about 10 times
- HIF-1α accumulation induced by L-mimosone [13]: blocks HIF-1α induction; also recorded: eliminated HIF-1α accumulation
- secretion of the angiogenesis factor VEGF [4]: inhibits
- plasma half-life in human ([9]; according to the literature): about 40 hours
- max. plasma concentration [9]: about 0.001 μg/mL

SMILES: COc1cc2ncnc(Nc3ccc(F)c(Cl)c3)c2cc1OCCCN1CCOCC1 [Iressa]
- reporter activity [1]: reduction
